The results in this text go back to patent US11478526B2, “Methods of reducing neuroinflammation or toxicity induced by amyloid beta (abeta) using glucocorticoid induced leucine zipper (GILZ) analog peptides” (INDIANA UNIVERSITY RESEARCH AND TECHNOLOGY CORPORATION, priority 2016, dated 2022).

Assay [1] relates to Phospho-NF-κB p65 (Ser536). In words: LPS induced neuroinflammation: Phospho-NF-κB p65 ELISA of brain homogenates. It is filed as in vivo, mouse. To be noted: 25 mg/kg i.v. alternate days, day 7. As to the method: Animals and lipopolysaccharide induced neuroinflammation: Male C57/6J mice weighing 32 to 37 grams were housed five per cage at a temperature of 22±2° C. with 12 hour light/12 hour dark cycles with free access to laboratory food and water. Lipopolysaccharides (LPS) from Escherichia coli 026:B6, =10,000 EU/mg, purified by phenol extraction was purchased from Sigma (Sigma Aldrich, Mo., USA). The mice were randomly divided into seven groups: LPS, LPS+GA-1 or GA-2 or CP-1 or CP-2 or CP-3 or TAT. The LPS was administered intraperitoneally at […] in 100 μl of sterile saline followed by corn oil in the morning daily for six days. The GA or CP was administered intravenously at 25 mg/kg in 100 μl of sterile saline on alternate days. Additional control group included mice receiving saline alone. […]
NF-κB assay: Brain homogenates processed as above were assessed by the Cell Signaling Technology PathScan® Phospho-NF-κB p65 (Ser^536) Sandwich ELISA kit following manufacturer's protocol (Cell Signaling Technology, Boston, Mass.). […] After extensive washing, the captured phospho-NF-κB p65 protein was detected by incubating with horse radish peroxidase (HRP) conjugated NF-κB p65 rabbit mAb followed by washing and color development using the TMB substrate. Absorbance at 450 nm was measured using a microplate reader (Model 680; Bio-Rad Laboratories, Hercules, Calif., USA). […]

In assay [2] the test system is LPS induced neuroinflammation. The assay can be described thus: LPS induced neuroinflammation: real time PCR of brain tissue. The class given is in vivo, mouse. As to conditions: 25 mg/kg i.v. alternate days, day 7. As to the method: Animals and lipopolysaccharide induced neuroinflammation: Male C57/6J mice weighing 32 to 37 grams were housed five per cage at a temperature of 22±2° C. with 12 hour light/12 hour dark cycles with free access to laboratory food and water. Lipopolysaccharides (LPS) from Escherichia coli 026:B6, =10,000 EU/mg, purified by phenol extraction was purchased from Sigma (Sigma Aldrich, Mo., USA). The mice were randomly divided into seven groups: LPS, LPS+GA-1 or GA-2 or CP-1 or CP-2 or CP-3 or TAT. The LPS was administered intraperitoneally at […] in 100 μl of sterile saline followed by corn oil in the morning daily for six days. The GA or CP was administered intravenously at 25 mg/kg in 100 μl of sterile saline on alternate days. Additional control group included mice receiving saline alone. All animals were sacrificed on day 7.
Real time polymerase chain reaction. Total cellular RNA was isolated from each brain tissue using Qiagen kit (Invitrogen, Carlsbad, Calif.) following manufacturer's protocol and reverse transcribed using iScript cDNA synthesis kit (Biorad, Calif.). Equal amount of cDNA measured by the Nanodrop (ThermoFisher Scientific, Waltham, USA) was used for amplification of IL-1β, IL-12, CD14, BclXL and Bcl2. Real time PCR was performed using SYBR green/ROX qPCR master mix (SA Biosciences, Frederick, Md.) on the ABI Prism 7000 sequence detection system (Applied Biosystem, Foster City, Calif., USA). Each reaction contains 2×12.5 μl of master mix, 1 μl of 10 μM of primers and 50 ng of the cDNA, to a total volume of 25 μl. The thermal cycling conditions included an initial denaturation step at 50° C. for 2 min, 95° C. for 3 min, 39 cycles at 95° C. for 30 s, annealing temperature at 62° C. for 30 s and extension at 72° C. for 30 s.
The gene specific threshold cycle (Ct) for each sample (ΔCt) was corrected by subtracting the Ct for the housekeeping gene β-actin. Untreated controls were chosen as the reference samples. The ΔCt for all experimental samples was subtracted by the ΔCt for the control samples (ΔΔCt).The difference in each gene specific threshold between the sample from vehicle treated and GA or CP treated cells was determined to obtain the relative change in the specific mRNA. The magnitude of change in the mRNA was expressed as 2^−ΔΔCt. Each measurement of a sample was performed in duplicates.
On the technique in general: Quantitative PCR measures a nucleic acid by following its amplification.

For Ac-EPAPLAPYG-NH2 [GA-1], in assay [1], the “absorbance suggestive of activated p65 in brain protein extract” value is listed as 0.098+/−0.03. Moreover, in assay [2], the “relative expression of BCl2 in brain tissues” value was 1.25+/−0.5, the “relative expression of BclXL in brain tissues” value is 0.32+/−0.15, the “relative expression of CD14 mRNA in brain tissues” value is on record as 0.48+/−0.1 and the “steady-state mRNA for IL-1β in brain tissues” value is “decreased levels”.
Regarding Ac-EPAPESPQV-NH2 [GA-2], in assay [1], the “absorbance suggestive of activated p65 in brain protein extract” value is 0.12+/−0.07. Moreover, in assay [2], the “relative expression of BCl2 in brain tissues” value is 1.9+/−0.9, the “relative expression of BclXL in brain tissues” value is on record as 0.25+/−0.4 and the “steady-state mRNA for IL-1β in brain tissues” value was “decreased levels”.
